From patent publication US6525001B1, “Substituted pyrimidine and pyridine herbicides” (Mid-American Commercialization Corporation, priority 1997, dated 2003)

How the values were obtained:
Format in all cases: in vivo
[1] = test system: cocklebur (Xanthium strumarium); assay: Test B pre-/postemergence; set-up: key: 0 is no effect; 10 is complete control; conditions: for Cocklebur plant response rating: Preemergence
Text: (§1) Seeds of bedstraw (Galium aparine), blackgrass (Alopecurus myosuroides), broadleaf signalgrass (Brachiaria decumbens), cocklebur (Xanthium strumarium), corn (Zea mays), crabgrass (Digitaria sanguinalis), giant foxtail (Setaria faberii), lambsquarters (Chenopodium album), momingglory (Ipomoea hederacea), pigweed (Amaranthus retroflexus), rape (Brassica napus), soybean (Glycine max), sugar beet (Beta vulgaris), velvetleaf (Abutilon theophrasti), wheat (Triticum aestivum), wild oat (Avena fatua) and purple nutsedge (Cyperus rotundus) tubers were planted and treated preemergence with test chemicals formulated in a non-phytotoxic solvent mixture which included a surfactant.
(§2) At the same time, these crop and weed species were also treated with postemergence applications of test chemicals formulated in the same manner. Plants ranged in height from 2 to 18 cm (1- to 4-leaf stage) for postemergence treatments. Plant species in the flood test consisted of rice (Oryza sativa), smallflower flatsedge (Cyperus difformis), duck salad (Heteranthera limosa) and bamyardgrass (Echinochloa crus-galli) grown to the 2-leaf stage for testing. Treated plants and controls were maintained in a greenhouse for twelve to sixteen days, after which all species were compared to controls and visually evaluated. Plant response ratings, summarized in Table B, are based on a scale of 0 to 10 where 0 is no effect and 10 is complete control. A dash (−) response means no test result.

wild oat (Avena fatua) = assay: Test B pre-/postemergence; set-up: key: 0 is no effect; 10 is complete control
Text: as §1, §2

[2] = test system: bedstraw (Galium aparine); assay: Test B pre-/postemergence; set-up: key: 0 is no effect; 10 is complete control; conditions: for Bedstraw plant response rating: Preemergence
Text: as §1, §2

[3] = test system: momingglory (Ipomoea hederacea); assay: Test B pre-/postemergence; set-up: key: 0 is no effect; 10 is complete control
Text: as §1, §2

[4] = test system: crabgrass (Digitaria sanguinalis); assay: Test B pre-/postemergence; set-up: key: 0 is no effect; 10 is complete control; conditions: for Crabgrass plant response rating: Preemergence
Text: as §1, §2

soybean (Glycine max) = assay: Test B pre-/postemergence; set-up: key: 0 is no effect; 10 is complete control
Text: as §1, §2

corn (Zea mays) = assay: Test B pre-/postemergence; set-up: key: 0 is no effect; 10 is complete control; conditions: for Corn plant response rating: Preemergence
Text: as §1, §2

rape (Brassica napus) = assay: Test B pre-/postemergence; set-up: key: 0 is no effect; 10 is complete control
Text: as §1, §2

[5] = test system: velvetleaf (Abutilon theophrasti); assay: Test B pre-/postemergence; set-up: key: 0 is no effect; 10 is complete control
Text: as §1, §2

[6] = test system: giant foxtail (Setaria faberii); assay: Test B pre-/postemergence; set-up: key: 0 is no effect; 10 is complete control
Text: as §1, §2

[7] = test system: wheat (Triticum aestivum); assay: Test B pre-/postemergence; set-up: key: 0 is no effect; 10 is complete control
Text: as §1, §2

[8] = test system: pigweed (Amaranthus retroflexus); assay: Test B pre-/postemergence; set-up: key: 0 is no effect; 10 is complete control
Text: as §1, §2

[9] = test system: sugar beet (Beta vulgaris); assay: Test B pre-/postemergence; set-up: key: 0 is no effect; 10 is complete control
Text: as §1, §2

[10] = test system: blackgrass (Alopecurus myosuroides); assay: Test B pre-/postemergence; set-up: key: 0 is no effect; 10 is complete control; conditions: for Blackgrass plant response rating: Preemergence
Text: as §1, §2

[11] = test system: broadleaf signalgrass (Brachiaria decumbens); assay: Test B pre-/postemergence; set-up: key: 0 is no effect; 10 is complete control; conditions: for B. signalgrass plant response rating: Preemergence
Text: as §1, §2

[12] = test system: duck salad (Heteranthera limosa); assay: Test B flood test
Protocol: as §2

[13] = test system: smallflower flatsedge (Cyperus difformis); assay: Test B flood test
Protocol: as §2

[14] = test system: bamyardgrass (Echinochloa crus-galli); assay: Test B flood test
Protocol: as §2

rice (Oryza sativa) = assay: Test B flood test
Protocol: as §2

[15] = Rate 250 g/ha, Postemergence (so in the source)
[16] = Rate 62 g/ha, Postemergence (flood test)
[17] = Rate 125 g/ha, Postemergence, flood test
[18] = Rate 250 g/ha, Postemergence (flood test species)
[19] = Rate 125 g/ha, Postemergence section (flood test species)

SMILES: CCc1cnc(-n2ccc(C(F)(F)F)n2)nc1Cc1cccc(OC(F)(F)F)c1 [Compound 47]
- Plant response rating, Cocklebur ([1]; Rate 62 g/ha, Postemergence): 7
- Cocklebur plant response rating ([1]; Rate 62 g/ha): 1
- Plant response rating, Cocklebur ([1]; Rate 125 g/ha, Postemergence): 8
- Cocklebur plant response rating ([1]; Rate 125 g/ha): 2
- Plant response rating, Cocklebur ([1]; Rate 250 g/ha, Postemergence): 8
- Plant response rating, Cocklebur [1, 15]: 2
- Wild oats plant response rating (wild oat (Avena fatua); Rate 62 g/ha, Postemergence): 6
- Wild oats plant response rating (wild oat (Avena fatua); Rate 62 g/ha, Preemergence): 9
- Wild oats plant response rating (wild oat (Avena fatua); Rate 125 g/ha, Postemergence): 8
- Plant response rating, Wild oats (wild oat (Avena fatua); Rate 125 g/ha, Preemergence): 9
- Plant response rating, Wild oats (wild oat (Avena fatua); Rate 250 g/ha, Postemergence): 9
- Plant response rating, Wild oats (wild oat (Avena fatua); [15]): 10
- Plant response rating, Bedstraw ([2]; Rate 62 g/ha, Postemergence): 9
- Bedstraw plant response rating ([2]; Rate 62 g/ha): 7
- Bedstraw plant response rating ([2]; Rate 125 g/ha): 8
- Plant response rating, Bedstraw [2, 15]: 8
- Plant response rating, Morningglory ([3]; Rate 62 g/ha, Postemergence): 6
- Morningglory plant response rating ([3]; Rate 62 g/ha, Preemergence): 1
- Morningglory plant response rating ([3]; Rate 125 g/ha, Postemergence): 6
- Morningglory plant response rating ([3]; Rate 125 g/ha, Preemergence): 6
- Plant response rating, Morningglory ([3]; Rate 250 g/ha, Postemergence): 8
- Plant response rating, Morningglory [3, 15]: 6
- Plant response rating, Crabgrass ([4]; Rate 62 g/ha, Postemergence): 7
- Crabgrass plant response rating ([4]; Rate 62 g/ha): 8
- Plant response rating, Crabgrass ([4]; Rate 125 g/ha, Postemergence): 9
- Crabgrass plant response rating ([4]; Rate 125 g/ha): 10
- Plant response rating, Crabgrass ([4]; Rate 250 g/ha, Postemergence): 10
- Plant response rating, Crabgrass [4, 15]: 10
- Plant response rating, Soybean (soybean (Glycine max); Rate 62 g/ha, Postemergence): 8
- Soybean plant response rating (soybean (Glycine max); Rate 62 g/ha, Preemergence): 0
- Soybean plant response rating (soybean (Glycine max); Rate 125 g/ha, Postemergence): 8
- Plant response rating, Soybean (soybean (Glycine max); Rate 125 g/ha, Preemergence): 0
- Plant response rating, Soybean (soybean (Glycine max); Rate 250 g/ha, Postemergence): 7
- Plant response rating, Soybean (soybean (Glycine max); [15]): 2
- Plant response rating, Corn (corn (Zea mays); Rate 62 g/ha, Postemergence): 3
- Corn plant response rating (corn (Zea mays); Rate 62 g/ha): 1
- Plant response rating, Corn (corn (Zea mays); Rate 125 g/ha, Postemergence): 3
- Corn plant response rating (corn (Zea mays); Rate 125 g/ha): 2
- Plant response rating, Corn (corn (Zea mays); Rate 250 g/ha, Postemergence): 4
- Plant response rating, Corn (corn (Zea mays); [15]): 3
- Plant response rating, Rape (rape (Brassica napus); Rate 62 g/ha, Postemergence): 10
- Rape plant response rating (rape (Brassica napus); Rate 62 g/ha, Preemergence): 7
- Rape plant response rating (rape (Brassica napus); Rate 125 g/ha, Postemergence): 10
- Rape plant response rating (rape (Brassica napus); Rate 125 g/ha, Preemergence): 9
- Plant response rating, Rape (rape (Brassica napus); Rate 250 g/ha, Postemergence): 10
- Plant response rating, Rape (rape (Brassica napus); [15]): 10
- Plant response rating, Velvetleaf ([5]; Rate 62 g/ha, Postemergence): 7
- Velvetleaf plant response rating ([5]; Rate 62 g/ha, Preemergence): 8
- Velvetleaf plant response rating ([5]; Rate 125 g/ha, Postemergence): 7
- Plant response rating, Velvetleaf ([5]; Rate 125 g/ha, Preemergence): 10
- Plant response rating, Velvetleaf ([5]; Rate 250 g/ha, Postemergence): 8
- Plant response rating, Velvetleaf [5, 15]: 10
- Plant response rating, Giant foxtail ([6]; Rate 62 g/ha, Postemergence): 4
- Giant foxtail plant response rating ([6]; Rate 62 g/ha, Preemergence): 9
- Giant foxtail plant response rating ([6]; Rate 125 g/ha, Postemergence): 4
- Giant foxtail plant response rating ([6]; Rate 125 g/ha, Preemergence): 10
- Plant response rating, Giant foxtail ([6]; Rate 250 g/ha, Postemergence): 7
- Plant response rating, Giant foxtail [6, 15]: 10
- Wheat plant response rating ([7]; Rate 62 g/ha, Postemergence): 5
- Wheat plant response rating ([7]; Rate 62 g/ha, Preemergence): 2
- Wheat plant response rating ([7]; Rate 125 g/ha, Postemergence): 5
- Plant response rating, Wheat ([7]; Rate 125 g/ha, Preemergence): 3
- Plant response rating, Wheat ([7]; Rate 250 g/ha, Postemergence): 6
- Plant response rating, Wheat [7, 15]: 5
- Plant response rating, Redroot pigweed ([8]; Rate 62 g/ha, Postemergence): 9
- Redroot pigweed plant response rating ([8]; Rate 62 g/ha, Preemergence): 8
- Redroot pigweed plant response rating ([8]; Rate 125 g/ha, Postemergence): 9
- Redroot pigweed plant response rating ([8]; Rate 125 g/ha, Preemergence): 9
- Plant response rating, Redroot pigweed ([8]; Rate 250 g/ha, Postemergence): 9
- Plant response rating, Redroot pigweed [8, 15]: 10
- Plant response rating, Sugarbeets ([9]; Rate 62 g/ha, Postemergence): 9
- Sugarbeets plant response rating ([9]; Rate 62 g/ha, Preemergence): 7
- Sugarbeets plant response rating ([9]; Rate 125 g/ha, Postemergence): 9
- Plant response rating, Sugarbeets ([9]; Rate 125 g/ha, Preemergence): 7
- Plant response rating, Sugarbeets ([9]; Rate 250 g/ha, Postemergence): 9
- Plant response rating, Sugarbeets [9, 15]: 9
- Plant response rating, Blackgrass ([10]; Rate 62 g/ha, Postemergence): 5
- Blackgrass plant response rating ([10]; Rate 62 g/ha): 3
- Plant response rating, Blackgrass ([10]; Rate 125 g/ha, Postemergence): 5
- Blackgrass plant response rating ([10]; Rate 125 g/ha): 8
- Plant response rating, Blackgrass ([10]; Rate 250 g/ha, Postemergence): 6
- Plant response rating, Blackgrass [10, 15]: 10
- Plant response rating, B. signalgrass ([11]; Rate 62 g/ha, Postemergence): 4
- B. signalgrass plant response rating ([11]; Rate 62 g/ha): 5
- Plant response rating, B. signalgrass ([11]; Rate 125 g/ha, Postemergence): 5
- B. signalgrass plant response rating ([11]; Rate 125 g/ha): 6
- Plant response rating, B. signalgrass ([11]; Rate 250 g/ha, Postemergence): 8
- Plant response rating, B. signalgrass ([11]; Rate 250 g/ha, Postemergence as printed in head r139 (second section for compounds 26-50)): 9
- Plant response rating, Ducksalad [12, 16]: 3
- Plant response rating, Ducksalad [12, 17]: 3
- Plant response rating, Ducksalad [12, 18]: 7
- Plant response rating, S. Flatsedge [13, 16]: 7
- S. Flatsedge plant response rating [13, 19]: 7
- Plant response rating, S. Flatsedge [13, 18]: 9
- Plant response rating, Barnyardgrass [14, 16]: 2
- Plant response rating, Barnyardgrass [14, 17]: 3
- Plant response rating, Barnyardgrass [14, 18]: 6
- Plant response rating, Rice (rice (Oryza sativa); [16]): 3
- Rice plant response rating (rice (Oryza sativa); [19]): 5
- Plant response rating, Rice (rice (Oryza sativa); [18]): 6
